Here are results for 49 substances from the OligoGym collection.

Oligonucleotides are written 5' to 3', each unit as a sugar letter and its base; * is a phosphorothioate linkage, no mark a phosphodiester; rarer units and linkages stand in square brackets, end groups in braces. Plain capitals give the bases only. d = 2'-deoxy (DNA); r = 2'-OH (RNA)
Further: test concentration or dose not given here.

In this data set the target is MRFAP1. As to the kind of experiment: reporter assay of Huesken 2005. Conditions: siRNA. (In a reporter assay the amount or activity of a reporter protein is the signal.)
Regarding “sense rArArArCrUrUrCrArArGrGrArArGrArGrGrCrGdTdT / antisense rCrGrCrCrUrCrUrUrCrCrUrUrGrArArGrUrUrUdTdG”, the normalised inhibition (eCFP-eYFP dual reporter) turned out to be 66.3%.

As for “sense rArArArGrCrArGrCrGrGrArGrArUrGrCrGrGrCdTdT / antisense rGrCrCrGrCrArUrCrUrCrCrGrCrUrGrCrUrUrUdGdC”, the normalised inhibition (eCFP-eYFP dual reporter) was determined as 35.6%.

Turning to “sense rArArArUrArArCrUrUrUrGrArUrUrUrGrGrArAdTdT / antisense rUrUrCrCrArArArUrCrArArArGrUrUrArUrUrUdTdC”, the normalised inhibition (eCFP-eYFP dual reporter) came to 70.2%.

On to “sense rArArArUrUrUrUrArUrGrUrGrCrUrArCrArCrUdTdT / antisense rArGrUrGrUrArGrCrArCrArUrArArArArUrUrUdAdA”, for which the normalised inhibition (eCFP-eYFP dual reporter) stood at 46.8%.

“sense rArArCrCrUrGrCrCrUrGrArUrGrArGrUrUrUrGdTdT / antisense rCrArArArCrUrCrArUrCrArGrGrCrArGrGrUrUdAdT”: the normalised inhibition (eCFP-eYFP dual reporter) was 52%.

Regarding “sense rArArCrUrUrUrGrArUrUrUrGrGrArArArArUrGdTdT / antisense rCrArUrUrUrUrCrCrArArArUrCrArArArGrUrUdAdT”, the normalised inhibition (eCFP-eYFP dual reporter) turned out to be 50.3%.

Consider “sense rArArCrUrUrUrGrGrGrUrCrCrCrUrGrUrGrArCdTdT / antisense rGrUrCrArCrArGrGrGrArCrCrCrArArArGrUrUdCdA”, for which the normalised inhibition (eCFP-eYFP dual reporter) was found to be 26.8%.

As for “sense rArArGrArUrGrGrCrCrGrArGrArUrGrCrUrGrGdTdT / antisense rCrCrArGrCrArUrCrUrCrGrGrCrCrArUrCrUrUdCdG”, the normalised inhibition (eCFP-eYFP dual reporter) stood at 33.1%.

In the case of “sense rArArGrCrArGrCrGrGrArGrArUrGrCrGrGrCrCdTdT / antisense rGrGrCrCrGrCrArUrCrUrCrCrGrCrUrGrCrUrUdTdG”, the normalised inhibition (eCFP-eYFP dual reporter) stood at 42.8%.

Consider “sense rArArGrGrCrCrGrArCrGrArGrArArGrGrCrGrCdTdT / antisense rGrCrGrCrCrUrUrCrUrCrGrUrCrGrGrCrCrUrUdCdT”, for which the normalised inhibition (eCFP-eYFP dual reporter) came to 63.1%.

“sense rArArGrGrUrUrCrArUrArUrGrUrArGrUrCrArAdTdT / antisense rUrUrGrArCrUrArCrArUrArUrGrArArCrCrUrUdGdA”: the normalised inhibition (eCFP-eYFP dual reporter) was found to be 85.4%.

“sense rArCrArArGrCrArArArGrCrArGrCrGrGrArGrAdTdT / antisense rUrCrUrCrCrGrCrUrGrCrUrUrUrGrCrUrUrGrUdCdT”: the normalised inhibition (eCFP-eYFP dual reporter) was 62.6%.

As for “sense rArCrCrUrGrArUrArArGrCrArUrUrUrGrArGrGdTdT / antisense rCrCrUrCrArArArUrGrCrUrUrArUrCrArGrGrUdCdT”, the normalised inhibition (eCFP-eYFP dual reporter) came to 46.8%.

On to “sense rArCrCrUrGrArUrArGrCrUrCrCrCrUrGrArArCdTdT / antisense rGrUrUrCrArGrGrGrArGrCrUrArUrCrArGrGrUdCdA”, for which the normalised inhibition (eCFP-eYFP dual reporter) is 68.5%.

With “sense rArCrCrUrGrGrGrArGrArArGrGrGrUrCrGrGrAdTdT / antisense rUrCrCrGrArCrCrCrUrUrCrUrCrCrCrArGrGrUdCdA”, the normalised inhibition (eCFP-eYFP dual reporter) amounted to 77.6%.

Regarding “sense rArCrGrArCrCrUrCrGrArUrArUrGrArGrUrUrUdTdT / antisense rArArArCrUrCrArUrArUrCrGrArGrGrUrCrGrUdCdA”, the normalised inhibition (eCFP-eYFP dual reporter) stood at 70%.

With “sense rArCrGrCrArGrUrGrGrArGrCrUrGrGrCrGrGrAdTdT / antisense rUrCrCrGrCrCrArGrCrUrCrCrArCrUrGrCrGrUdCdC”, the normalised inhibition (eCFP-eYFP dual reporter) was found to be 76.4%.

“sense rArCrUrArUrCrUrArUrUrArUrArArCrCrUrGrCdTdT / antisense rGrCrArGrGrUrUrArUrArArUrArGrArUrArGrUdGdT”: the normalised inhibition (eCFP-eYFP dual reporter) was determined as 42.2%.

On to “sense rArCrUrCrGrGrCrCrCrGrArGrCrUrCrGrGrUrCdTdT / antisense rGrArCrCrGrArGrCrUrCrGrGrGrCrCrGrArGrUdCdT”, for which the normalised inhibition (eCFP-eYFP dual reporter) stood at 61.5%.

Take “sense rArCrUrGrArGrArCrUrUrGrGrArGrUrUrGrGrAdTdT / antisense rUrCrCrArArCrUrCrCrArArGrUrCrUrCrArGrUdGdT”: the normalised inhibition (eCFP-eYFP dual reporter) is 88.7%.

Regarding “sense rArCrUrUrCrArArGrGrArArGrArGrGrCrGrUrCdTdT / antisense rGrArCrGrCrCrUrCrUrUrCrCrUrUrGrArArGrUdTdT”, the normalised inhibition (eCFP-eYFP dual reporter) was 82.5%.

As to “sense rArCrUrUrCrGrArGrCrArGrUrUrUrCrUrGrCrUdTdT / antisense rArGrCrArGrArArArCrUrGrCrUrCrGrArArGrUdCdC”, the normalised inhibition (eCFP-eYFP dual reporter) was determined as 51.4%.

As for “sense rArGrArGrGrCrCrUrCrUrGrArGrGrArGrArGrCdTdT / antisense rGrCrUrCrUrCrCrUrCrArGrArGrGrCrCrUrCrUdAdC”, the normalised inhibition (eCFP-eYFP dual reporter) was found to be 69.3%.

Regarding “sense rArGrCrUrCrGrUrGrCrGrGrCrGrGrArUrArGrAdTdT / antisense rUrCrUrArUrCrCrGrCrCrGrCrArCrGrArGrCrUdGdC”, the normalised inhibition (eCFP-eYFP dual reporter) worked out at 79.7%.

As to “sense rArGrGrGrCrGrGrArGrArArGrGrCrCrGrArCrGdTdT / antisense rCrGrUrCrGrGrCrCrUrUrCrUrCrCrGrCrCrCrUdGdG”, the normalised inhibition (eCFP-eYFP dual reporter) is 23.9%.

For the substance “sense rArGrGrUrCrArArArArCrCrCrUrUrArCrCrArUdTdT / antisense rArUrGrGrUrArArGrGrGrUrUrUrUrGrArCrCrUdCdA”, the normalised inhibition (eCFP-eYFP dual reporter) worked out at 85.7%.

In the case of “sense rArGrUrGrArUrGrGrCrGrArUrUrGrGrCrUrGrAdTdT / antisense rUrCrArGrCrCrArArUrCrGrCrCrArUrCrArCrUdCdA”, the normalised inhibition (eCFP-eYFP dual reporter) was 85.8%.

In the case of “sense rArGrUrUrUrCrUrGrCrUrGrCrCrCrGrUrCrArUdTdT / antisense rArUrGrArCrGrGrGrCrArGrCrArGrArArArCrUdGdC”, the normalised inhibition (eCFP-eYFP dual reporter) was determined as 66.2%.

Take “sense rArUrCrCrUrUrGrCrArArUrArCrCrCrUrUrUrGdTdT / antisense rCrArArArGrGrGrUrArUrUrGrCrArArGrGrArUdCdT”: the normalised inhibition (eCFP-eYFP dual reporter) was 66.3%.

Take “sense rArUrGrGrCrGrArArGrArUrGrGrCrCrGrArGrAdTdT / antisense rUrCrUrCrGrGrCrCrArUrCrUrUrCrGrCrCrArUdCdT”: the normalised inhibition (eCFP-eYFP dual reporter) turned out to be 78.7%.

For “sense rCrArArArArCrCrCrUrUrArCrCrArUrGrUrUrGdTdT / antisense rCrArArCrArUrGrGrUrArArGrGrGrUrUrUrUrGdAdC”, the normalised inhibition (eCFP-eYFP dual reporter) stood at 70.3%.

On to “sense rCrArArArGrGrArGrGrArGrArGrArUrGrUrArUdTdT / antisense rArUrArCrArUrCrUrCrUrCrCrUrCrCrUrUrUrGdGdT”, for which the normalised inhibition (eCFP-eYFP dual reporter) came to 99.2%.

As to “sense rCrArArGrArCrGrCrArGrGrUrArGrArGrGrCrCdTdT / antisense rGrGrCrCrUrCrUrArCrCrUrGrCrGrUrCrUrUrGdAdT”, the normalised inhibition (eCFP-eYFP dual reporter) amounted to 73.2%.

In the case of “sense rCrArArGrUrUrGrGrUrArUrCrCrCrCrArUrArUdTdT / antisense rArUrArUrGrGrGrGrArUrArCrCrArArCrUrUrGdTdA”, the normalised inhibition (eCFP-eYFP dual reporter) amounted to 62.5%.

On to “sense rCrArCrCrCrUrGrGrArGrArArGrCrUrGrArArAdTdT / antisense rUrUrUrCrArGrCrUrUrCrUrCrCrArGrGrGrUrGdTdC”, for which the normalised inhibition (eCFP-eYFP dual reporter) came to 66.7%.

On to “sense rCrArCrUrArCrGrUrUrUrCrUrGrCrUrArUrGrGdTdT / antisense rCrCrArUrArGrCrArGrArArArCrGrUrArGrUrGdTdC”, for which the normalised inhibition (eCFP-eYFP dual reporter) is 58%.

On to “sense rCrArCrUrGrArGrArCrUrUrGrGrArGrUrUrGrGdTdT / antisense rCrCrArArCrUrCrCrArArGrUrCrUrCrArGrUrGdTdC”, for which the normalised inhibition (eCFP-eYFP dual reporter) was 77.6%.

With “sense rCrArGrGrArGrArUrGrGrCrGrArArGrArUrGrGdTdT / antisense rCrCrArUrCrUrUrCrGrCrCrArUrCrUrCrCrUrGdCdG”, the normalised inhibition (eCFP-eYFP dual reporter) was found to be 81.9%.

Turning to “sense rCrArUrArUrGrUrArGrUrCrArArGrCrUrArUrAdTdT / antisense rUrArUrArGrCrUrUrGrArCrUrArCrArUrArUrGdAdA”, the normalised inhibition (eCFP-eYFP dual reporter) is 101%.

As to “sense rCrArUrGrCrArGrCrArArUrGrGrCrArGrArArGdTdT / antisense rCrUrUrCrUrGrCrCrArUrUrGrCrUrGrCrArUrGdGdA”, the normalised inhibition (eCFP-eYFP dual reporter) worked out at 79.1%.

Regarding “sense rCrCrArGrArGrArGrCrCrUrUrUrGrUrUrUrUrCdTdT / antisense rGrArArArArCrArArArGrGrCrUrCrUrCrUrGrGdTdT”, the normalised inhibition (eCFP-eYFP dual reporter) is 89.6%.

As to “sense rCrCrCrArGrGrGrCrGrGrArGrArArGrGrCrCrGdTdT / antisense rCrGrGrCrCrUrUrCrUrCrCrGrCrCrCrUrGrGrGdGdC”, the normalised inhibition (eCFP-eYFP dual reporter) is 65.6%.

For “sense rCrCrCrCrUrCrUrGrUrCrUrUrCrArCrUrCrUrGdTdT / antisense rCrArGrArGrUrGrArArGrArCrArGrArGrGrGrGdAdA”, the normalised inhibition (eCFP-eYFP dual reporter) is 87.5%.

Consider “sense rCrCrCrUrGrUrGrArCrArCrUrGrArGrArCrUrUdTdT / antisense rArArGrUrCrUrCrArGrUrGrUrCrArCrArGrGrGdAdC”, for which the normalised inhibition (eCFP-eYFP dual reporter) was determined as 65.9%.

Turning to “sense rCrCrGrArGrGrArGrGrUrGrGrArGrGrUrGrCrUdTdT / antisense rArGrCrArCrCrUrCrCrArCrCrUrCrCrUrCrGrGdGdC”, the normalised inhibition (eCFP-eYFP dual reporter) was 58.9%.

Regarding “sense rCrCrGrGrGrGrCrArArGrCrUrGrUrGrGrGrArGdTdT / antisense rCrUrCrCrCrArCrArGrCrUrUrGrCrCrCrCrGrGdTdT”, the normalised inhibition (eCFP-eYFP dual reporter) stood at 44.9%.

As to “sense rCrCrUrGrCrArArUrGrGrArCrCrCrArArArArCdTdT / antisense rGrUrUrUrUrGrGrGrUrCrCrArUrUrGrCrArGrGdTdT”, the normalised inhibition (eCFP-eYFP dual reporter) is 86.2%.

Regarding “sense rCrCrUrGrCrArGrGrGrCrGrCrGrGrGrCrGrGrCdTdT / antisense rGrCrCrGrCrCrCrGrCrGrCrCrCrUrGrCrArGrGdTdG”, the normalised inhibition (eCFP-eYFP dual reporter) was determined as 60.9%.

“sense rCrGrGrArArCrCrCrGrGrUrArUrGrGrGrArGrAdTdT / antisense rUrCrUrCrCrCrArUrArCrCrGrGrGrUrUrCrCrGdTdT”: the normalised inhibition (eCFP-eYFP dual reporter) came out at 49.8%.
